Measured values as given in patent US4448730A, “Hydroxybenzohydroxamic acids, benzamides and esters and related compounds as ribonucleotide reductase inhibitors” (priority 1982, dated 1984).
Several values for one entry are separate records, joined by “and”; a condition that tells them apart may be missing. Equal entries are not always repeated. Where two headings read alike, the source gives them in different places.

Columns and labels:
[1] = tested on: RNA and protein synthesis in Ehrlich ascites tumor cells; details: Gale and Hynes 1968; cited from earlier work
ribonucleotide reductase = target: T1, ribonucleotide reductase (Rattus norvegicus, UniProt Q4KLN6); test: Inhibition of ribonucleotide reductase (conversion of CDP to dCDP), enzyme partially purified from Novikoff hepatoma; format: biochemical; details: for IC50: CDP to dCDP, 40 min at 30° C, pH 7.5, enzyme from Novikoff hepatoma, read-out: ID50 (inhibitory dose which inhibits ribonucleotide reductase by 50%); for Inhibitory Potency for ribonucleotide reductase: relative to hydroxyurea, given an arbitrary value of 1.0
T1 construct: partially purified from Novikoff hepatoma; from tissue; host or cells: Novikoff hepatoma (rat tumour), partially purified enzyme
T1 sequence (Q4KLN6 1-390): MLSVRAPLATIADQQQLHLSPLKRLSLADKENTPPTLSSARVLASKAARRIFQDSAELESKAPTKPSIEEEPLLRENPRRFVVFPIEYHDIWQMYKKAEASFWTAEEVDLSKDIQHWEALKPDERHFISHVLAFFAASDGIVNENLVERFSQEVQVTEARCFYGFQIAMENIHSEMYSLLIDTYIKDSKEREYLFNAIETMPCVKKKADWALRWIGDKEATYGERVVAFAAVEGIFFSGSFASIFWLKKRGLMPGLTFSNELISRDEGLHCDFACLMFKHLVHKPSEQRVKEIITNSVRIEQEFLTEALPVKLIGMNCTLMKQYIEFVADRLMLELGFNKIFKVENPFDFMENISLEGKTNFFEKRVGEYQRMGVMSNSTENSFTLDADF
Excerpt: (§1) Table 2 gives ribonucleotide reductase data for certain compounds of formula I. In the table, column 1 gives the substitution pattern in the benzene ring, column 2, the R^1 group, column 3, the ID50 (inhibitory dose in micromolar concentration which inhibits ribonucleotide reductase by 50%), column 4, the average percent (± standard error) increase in the life span (ILS) of 8 treated mice inoculated with L1210 leukemia compared with 8 control mice also inoculated with L1210. The daily dose level of the drug which was administered for 8 days is indicated in column 5. Table 3 gives the relative potency of the compounds represented by formula I above as inhibitors of ribonucleotide reductase compared to hydroxyurea whose potency was given an arbitrary value of 1.0. In table 3, column 1 gives the name of the compound and column 2 the relative inhibitory potency of each of the compounds of column 1.
In the above determination of ID50 's in Table 3, ribonucleotide reductase is partially purified from Novikoff hepatoma by a procedure similar to that set forth by Elford et al. J. Biol. Chem. 245, 5228 (1970). The activity of the enzyme was measured by a slightly modified assay procedure originally developed by Reichard et al. id, 236, 1150 […]. This procedure measures the conversion of CDP to dCDP. The assay mixture (0.34 ml.) contains 3 μCi of [^3 H] CDP (specific activity […]), 3.3 μmole ATP, 5.9 μmoles magnesium chloride, 8.8 μmoles Hepes buffer at pH=7.5, 15 μmoles dithiothreitol and enzyme protein between 0.4 and 1.3 mg. Incubation was provided for forty minutes at 30° C. Ion exchange chromatography employing Dowex 50 (H^+) resin is used to separate the product from the substrate. The inhibitors were dissolved in water and a mixture of water and up to 1 % ethanol or 2% dimethylsulfoxide, neither one of which inhibited the enzyme at these concentrations. Each inhibitor was tested at a minimum of three concentrations and the active compounds reassayed at least one additional time. ID50 's in μmoles were estimated from graphs summarizing results for each compound.

L1210 leukemia = L1210 leukemia in mice, increase in life span (Table 2); format: in vivo; details: Mus musculus, L1210, 192 h, read-out: ILS, average percent (± standard error) increase in life span
Excerpt: As stated above, the compounds represented by formula I above have the ability to inhibit ribonucleotide reductase, an enzyme involved in the reductive conversion of ribonucleotides to deoxyribonucleotides. This enzymatic reaction is a rate controlling step in the biosynthetic pathway leading to DNA and cell replication. In general, the ribonucleotide reductase level is closely correlated with cellular replication.
as §1

L-1210 Leukemia [2] = format: in vivo, mice; details: once or twice daily for 9-10 days
Procedure: (§3) All compounds were administered once or twice daily for 9-10 days starting 24 hours after inoculation with the tumor.

Lewis Lung = test: Activity vs. Lewis Lung (Table 5); format: in vivo, mice; details: once or twice daily for 9-10 days
Procedure: as §3

CA-755 adenocarcinoma = test: Activity vs. CA-755 adenocarcinoma (Table 7); format: in vivo, mice; details: once or twice daily for 9-10 days
Procedure: as §3

P388 Leukemia = test: Activity vs. P388 Leukemia (Table 8); format: in vivo, mice; details: once or twice daily for 9-10 days
Procedure: as §3

CX-1 colon xenograft = test: Activity against CX-1 colon xenograft; format: in vivo
Procedure: In addition, the compound 3,4-dihydroxybenzenehydroxamic acid was active against CX-1 colon xenograft using the following protocol:
0% tumor inhibition at 800 mg/kg dose level every fourth day,
3,4,5-trihydroxybenzohydroxamic acid gave the following results against the same tumor using the same protocol.

CD8F mammary tumor = test: Inhibition of growth of CD8F mammary tumor; format: in vivo
Excerpt: (§2) The same two compounds were effective in inhibiting the growth of the following transplanted tumors--B16 melanoma, M-1 human breast xenograft, LX-1 human lung xenograft, CD8F mammary tumor and colon 38 tumor--as follows: […]

colon 38 tumor = test: Inhibition of growth of colon tumor C8 (colon 38); format: in vivo, mice
Excerpt: as §2

B16 melanoma = test: B16 melanoma, increase in survival; format: in vivo, mice
Excerpt: as §2

[3] = tested on: LX-1 human lung xenograft; test: Inhibition of growth of LX-1 human lung xenograft; format: in vivo, mice
Excerpt: as §2

L-1210 Leukemia [4] = format: in vivo, mice
Procedure: In a series of studies against L-1210 leukemia, in addition to those studies set forth in Table 2 and 4, 3,4-dihydroxybenzohydroxamic acid gave the following increases in survival times at the dose levels specified. Drug was administered daily for nine days.
Similar data for 3,4,5-trihydroxybenzohydroxamic acid are as follows: […]

L-1210 Leukemia [5] = format: in vivo, mice; remark: listed apart in the source
Excerpt: The above data clearly show the enhanced anti-tumor activity of trihydroxybenzohydroxamic acid where the hydroxy groups are vicinal but no hydroxyl is ortho. Similar data are available for the vicinal dihydroxybenzohydroxamic acids with and without an ortho-hydroxy substituent in an L-1210 leukemic test in mice as follows: […]

L-1210 Leukemia [6] = test: Direct side-by-side comparison with L-1210 leukemia; format: in vivo, mice
Excerpt: In a direct side-by-side comparison with L-1210 leukemia, the following results were obtained.

L-5563 lymphoma = test: Activity vs. L-5563 lymphoma (Table 6); details: once or twice daily for 9-10 days
Procedure: as §3

P-388 leukemia = test: Prolongation of life of mice inoculated with P-388 leukemia, dosing every fifth day; format: in vivo; details: 50-400 mg/kg every fifth day
[7] = tested on: M-1 human breast xenograft; test: Inhibition of growth of M-1 human breast xenograft; format: in vivo, mice
Excerpt: as §2

Compound: O=C(NO)c1ccccc1 [Benzohydroxamic acid]
- inhibition of RNA synthesis (in words) [1]: found to inhibit RNA synthesis

Compound: O=C(NO)c1ccc(O)c(O)c1 [3,4-dihydroxybenzohydroxamic acid]
- IC50 (ribonucleotide reductase): 30 µM
- Inhibitory Potency for ribonucleotide reductase (ribonucleotide reductase): 17
- ILS at 600 mg/kg (L1210 leukemia; 600 mg/kg daily for 8 days): 103 ± 15%
- survivors (L-1210 Leukemia [2]; 200 mg/kg): 4 survivors
- % increase in survival time (L-1210 Leukemia [2]; 225 mg/kg): 65%
- % tumor inhibition (Lewis Lung; 200 mg/kg): 14%
- % tumor inhibition (Lewis Lung; 400 mg/kg): 31-58%
- % inhibition (CA-755 adenocarcinoma; 100 mg/kg): 16%
- % inhibition (CA-755 adenocarcinoma; 200 mg/kg): 25% and 36%
- % inhibition (CA-755 adenocarcinoma; 300 mg/kg): 52%
- toxic (in column % inhibition) (CA-755 adenocarcinoma; 300 mg/kg): toxic
- % Prolongation (P388 Leukemia; 200 mg/kg): 51%
- % Prolongation (P388 Leukemia; 225 mg/kg): 89%
- tumor inhibition (CX-1 colon xenograft; 200 mg/kg every fourth day): 48%
- tumor inhibition (CX-1 colon xenograft; 400 mg/kg every fourth day): 14%
- tumor inhibition (CX-1 colon xenograft; 800 mg/kg every fourth day): 0%
- activity against CX-1 colon xenograft (in words) (CX-1 colon xenograft; every fourth day): active
- inhibition (CD8F mammary tumor; 300 mg/kg): 52%
- inhibition (CD8F mammary tumor; 600 mg/kg): 11%
- inhibition (colon 38 tumor; 50 mg/kg): 12%
- inhibition (colon 38 tumor; 100 mg/kg): 8%
- inhibition (colon 38 tumor; 200 mg/kg): 15%
- inhibition (colon 38 tumor; 400 mg/kg): 52%
- increase in survival (B16 melanoma; 200 mg/kg): 24-25%
- increase in survival (B16 melanoma; 400 mg/kg): 41%
- inhibition ([3]; 200 mg/kg): 0%
- inhibition ([3]; 400 mg/kg): 26%
- inhibition ([3]; 800 mg/kg): 27%
- % increase in survival (L-1210 Leukemia [4]; 25 mg/kg daily for nine days): 15%
- % increase in survival (L-1210 Leukemia [4]; 50 mg/kg daily for nine days): 25%
- % increase in survival (L-1210 Leukemia [4]; 100 mg/kg daily for nine days): 37%
- % increase in survival (L-1210 Leukemia [4]; 164 mg/kg daily for nine days): 21%
- % increase in survival (L-1210 Leukemia [4]; 196 mg/kg daily for nine days): 52%
- % increase in survival (L-1210 Leukemia [4]; 200 mg/kg daily for nine days): 67%
- % increase in survival (L-1210 Leukemia [4]; 235 mg/kg daily for nine days): 39%
- % increase in survival (L-1210 Leukemia [4]; 245 mg/kg daily for nine days): 45% and 68%
- % increase in survival (L-1210 Leukemia [4]; 307 mg/kg daily for nine days): 67% and 76%
- % increase in survival (L-1210 Leukemia [4]; 336 mg/kg daily for nine days): 55%
- % increase in survival (L-1210 Leukemia [4]; 384 mg/kg daily for nine days): 62% and 85%
- % increase in survival (L-1210 Leukemia [4]; 400 mg/kg daily for nine days): 67%
- % increase in survival (L-1210 Leukemia [4]; 480 mg/kg daily for nine days): 106% and 87% and 67%
- % increase in survival (L-1210 Leukemia [4]; 600 mg/kg daily for nine days): 54% and 64%
- % increase in survival time (L-1210 Leukemia [5]; 100 mg/kg): 25%
- % increase in survival time (L-1210 Leukemia [5]; 300 mg/kg): 56%
- % increase in survival time (L-1210 Leukemia [5]; 453 mg/kg): 125%
- % increase in survival time (L-1210 Leukemia [5]; 500 mg/kg): 84%
- % increase in survival time (L-1210 Leukemia [5]; 543 mg/kg): 77%
- % increase in survival time (L-1210 Leukemia [5]; 600 mg/kg): 94% and 103%
- % increase in survival time (L-1210 Leukemia [5]; 643 mg/kg): 65%
- % increase in survival time (L-1210 Leukemia [6]; 250 mg/kg): 32%
- % increase in survival time (L-1210 Leukemia [6]; 500 mg/kg): 70%
- % inhibition (L-5563 lymphoma; 200 mg/kg): 24%

Compound: O=C(NO)c1cc(O)c(O)c(O)c1 [3,4,5-trihydroxybenzohydroxamic acid]
- IC50 (ribonucleotide reductase): 10 µM
- Inhibitory Potency for ribonucleotide reductase (ribonucleotide reductase): 50
- ILS at 400 mg/kg (L1210 leukemia; 400 mg/kg daily for 8 days): 53 ± 19%
- % increase in survival time (L-1210 Leukemia [2]; 75 mg/kg): 60%
- % increase in survival time (L-1210 Leukemia [2]; 100 mg/kg, listed as gallohydroxamic acid): 58% and 55%
- % increase in survival time (L-1210 Leukemia [2]; 120 mg/kg): 54%
- % tumor inhibition (Lewis Lung; 100 mg/kg): 40%
- % inhibition (CA-755 adenocarcinoma; 100 mg/kg): 28%
- % inhibition (CA-755 adenocarcinoma; 150 mg/kg): 11%
- % inhibition (CA-755 adenocarcinoma; 175 mg/kg): 29%
- % Prolongation (P388 Leukemia; 200 mg/kg): 62%
- % Prolongation (P388 Leukemia; 225 mg/kg): 79%
- tumor inhibition (CX-1 colon xenograft; 200 mg/kg every fourth day): 17%
- tumor inhibition (CX-1 colon xenograft; 400 mg/kg every fourth day): 40%
- tumor inhibition (CX-1 colon xenograft; 800 mg/kg every fourth day): 44%
- prolongation of life (P-388 leukemia): 23-53%
- inhibition (CD8F mammary tumor; 300 mg/kg): 0%
- inhibition (CD8F mammary tumor; 600 mg/kg): 22%
- inhibition (colon 38 tumor; 50 mg/kg): 20%
- inhibition (colon 38 tumor; 100 mg/kg): 30%
- inhibition (colon 38 tumor; 200 mg/kg): 32%
- inhibition (colon 38 tumor; 400 mg/kg): 17%
- inhibition (colon 38 tumor; 800 mg/kg): 60%
- increase in survival (B16 melanoma; 100 mg/kg): 14%
- increase in survival (B16 melanoma; 200 mg/kg): 18%
- inhibition ([7]; 200 mg/kg): 69%
- inhibition ([7]; 400 mg/kg): 21%
- inhibition ([7]; 800 mg/kg): 56%
- inhibition ([7]; 1600 mg/kg): 41%
- % increase in survival (L-1210 Leukemia [4]; 50 mg/kg daily for nine days): 27% and 29%
- % increase in survival (L-1210 Leukemia [4]; 200 mg/kg daily for nine days): 54% and 56%
- % increase in survival (L-1210 Leukemia [4]; 400 mg/kg daily for nine days): 0% and 4%
- % increase in survival time (L-1210 Leukemia [4]; dose 800, similar data (daily for nine days)): 16%
- % inhibition (L-5563 lymphoma; 100 mg/kg): 41%
